The test concerns the target CDK9 (Homo sapiens, UniProt P50750). The test can be described thus: CeTSA isothermal dose-response at […] °C in intact LNCaP cells, immunoblot. It counts as cell-based.

This is an account of results in paper PMC10241923 (British Journal of Cancer, 2023).

Chain of CDK9 (P50750 whole entry): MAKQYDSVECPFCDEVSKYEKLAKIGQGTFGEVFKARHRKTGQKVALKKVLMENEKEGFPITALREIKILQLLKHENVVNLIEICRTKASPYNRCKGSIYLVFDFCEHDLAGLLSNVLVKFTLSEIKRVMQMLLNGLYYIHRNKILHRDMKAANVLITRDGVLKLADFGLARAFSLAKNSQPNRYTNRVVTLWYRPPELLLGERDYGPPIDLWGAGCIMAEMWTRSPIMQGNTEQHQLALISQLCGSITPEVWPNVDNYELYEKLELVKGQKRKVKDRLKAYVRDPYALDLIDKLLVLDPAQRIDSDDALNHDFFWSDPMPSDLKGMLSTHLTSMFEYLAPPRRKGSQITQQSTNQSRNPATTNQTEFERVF

As for `CC(C)c1cnn2c(NCc3ccccc3)cc(NC[C@H]3CCNC[C@@H]3O)nc12` [CT7001], the “CeTSA isothermal dose-response at 54 °C in intact LNCaP cells, immunoblot” value was “has a degree of engagement also with CDK2 and CDK9 at higher concentrations”.
